How the values were obtained:
[1] = target: SNAP-hSPR (sepiapterin reductase, SPR) (Homo sapiens, UniProt P35270); experiment: biochemical; type: binding; conditions: terbium labelled SNAP-hSPR / SSZ labelled SNAP-EGFP; read-out: hTR-FRET IC50
[2] = system: BH4 production in human peripheral blood mononuclear cells (PBMCs); experiment: hPBMC assay, inhibition of BH4 production by LC-MS (anti-CD3/anti-CD28 stimulated); type: cell-based; conditions: PBMC, read-out: hPBMC IC50
Protocol: hPBMC Assay: PBMCs were either purchased or isolated from fresh human blood and used either as a fresh preparation or frozen for later use. The assay system was prepared by pre-treating the assay plates overnight with a solution containing anti-human CD3 antibody. Human PBMCs were suspended in assay medium and plated into the assay plates at a density of 1-4×10^5 cells per well. The desired concentration of the test compound was added to each well. A solution of human anti-CD28 antibody was also added to each well. Plates were incubated for 12-48 hours at 37° C. and 5% CO2. Assay plates were centrifuged for 5-15 minutes at 1-3000 RMP and supernatants were removed. The cells were lysed, sealed and used directly or frozen at −80° C. LC-MS was used to quantify the amount of inhibition of BH4 production.
PBMCs were either purchased or isolated from fresh human blood and used either as a fresh preparation or frozen for later use. The assay system was prepared by pre-treating the assay plates overnight with a solution containing anti-human CD3 antibody. Human PBMCs were suspended in assay medium and plated into the assay plates at a density of 1-4×10^5 cells per well. The desired concentration of the test compound was added to each well. A solution of human anti-CD28 antibody was also added to each well. Plates are incubated for 12-48 hours at 37° C. and 5% CO2. Assay plates were centrifuged for 5-15 minutes at 1-3000 RMP and supernatants were removed. The cells were lysed, sealed and used directly or frozen at −80° C.

Sequence of SNAP-hSPR (sepiapterin reductase, SPR) (P35270 whole entry): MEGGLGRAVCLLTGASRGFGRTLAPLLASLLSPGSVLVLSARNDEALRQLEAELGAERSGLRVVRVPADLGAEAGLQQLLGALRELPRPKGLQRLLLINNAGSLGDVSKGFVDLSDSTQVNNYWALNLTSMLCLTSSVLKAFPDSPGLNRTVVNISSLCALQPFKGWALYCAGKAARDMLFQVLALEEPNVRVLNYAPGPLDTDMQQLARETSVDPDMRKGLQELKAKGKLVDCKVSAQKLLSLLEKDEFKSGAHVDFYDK

Structure (SMILES)	IC50 [1] [µM]	IC50 [2] [µM]
Cc1c(C(=O)N2CCN(c3ncc(-c4cccc(Cl)c4)o3)CC2)cnn1-c1nn2cccc2c(=O)[nH]1 [Q-1176]	0.009	0.28
Cc1c(C(=O)NC2CC(F)(F)C2)cnn1-c1nn2cccc2c(=O)[nH]1 [Q-1177]	0.009	1.3
Cc1c(C(=O)N2CCN(c3nnc(-c4ccc(C(F)(F)F)cn4)o3)CC2)cnn1-c1nn2cccc2c(=O)[nH]1 [Q-1178]	0.009	2.6
Cc1c(C(=O)N2CCN(c3nc(-c4ccc(Cl)nc4)cs3)CC2)cnn1-c1nn2cccc2c(=O)[nH]1 [Q-1179]	0.002	0.11
Cc1c(C(=O)N2CCN(c3nc(-c4ccc(F)nc4)cs3)CC2)cnn1-c1nn2cccc2c(=O)[nH]1 [Q-1180]	0.002	0.047
Cc1c(C(=O)N2CCN(c3nc(-c4cccc(C#N)c4)cs3)CC2)cnn1-c1nn2cccc2c(=O)[nH]1 [Q-1181]	0.002	0.011
Cc1c(C(=O)N2CCN(c3nc(-c4ccncc4)cs3)CC2)cnn1-c1nn2cccc2c(=O)[nH]1 [Q-1182]	0.001	0.048
Cc1c(C(=O)N2CCCN(CCC(F)(F)F)CC2)cnn1-c1nn2cccc2c(=O)[nH]1 [Q-1183]	0.004	0.11
Cc1c(C(=O)N2CCC(C3CC3)CC2)nnn1-c1nn2cccc2c(=O)[nH]1 [Q-1184]	0.002	0.037
Cc1c(C(=O)N2CC(N3CCC(F)(F)C3)C2)nnn1-c1nn2cccc2c(=O)[nH]1 [Q-1185]	0.001	0.11
Cc1c(C(=O)N2C[C@H]3CCC[C@@H](C2)[C@H]3CC(F)(F)F)cnn1-c1nn2cccc2c(=O)[nH]1 [Q-1186]	0.001	0.036
Cc1c(C(=O)N2CCc3nc(-c4ccncc4)sc3C2)cnn1-c1nn2cccc2c(=O)[nH]1 [Q-1187]	0.004	0.19
Cc1c(C(=O)N2CCN(c3nnc(-c4ccccc4Cl)o3)CC2)cnn1-c1nn2cccc2c(=O)[nH]1 [Q-1188]	0.006	0.29
Cc1c(C(=O)N2CCN(c3ncc(-c4ccc(Cl)nc4)o3)CC2)nnn1-c1nn2cccc2c(=O)[nH]1 [Q-1190]	0.01	0.059
Cc1c(C(=O)N2CCN(C3CCC3)CC2)nnn1-c1nn2cccc2c(=O)[nH]1 [Q-1191]	0.001	0.02
Cc1c(C(=O)N2CCC3(CCCC3=O)CC2)cnn1-c1nn2cccc2c(=O)[nH]1 [Q-1192]	0.001	0.04

Structure (SMILES)	IC50 [1] [µM]	IC50 [2] [µM]
Cc1c(C(=O)N2CCN(c3nnc(-c4cccc(F)c4)o3)CC2)cnn1-c1nn2cccc2c(=O)[nH]1 [Q-1193]	0.007	0.16
Cc1c(C(=O)N2CC3CC(C2)N3CCC(F)(F)F)cnn1-c1nn2cccc2c(=O)[nH]1 [Q-1194]	0.002	0.06
Cc1c(C(=O)N2CCN(c3nc(-c4ccnc(F)c4)cs3)CC2)cnn1-c1nn2cccc2c(=O)[nH]1 [Q-1196]	0.003	0.052
Cc1c(C(=O)N2CCN(c3ncc(-c4ccc(F)nc4)s3)CC2)cnn1-c1nn2cccc2c(=O)[nH]1 [Q-1197]	0.003	0.026
COCC(C1CCN(C(=O)c2cnn(-c3nn4cccc4c(=O)[nH]3)c2C)CC1)C(F)(F)F (stereo not shown) [Q-1198]	0.001	0.017
Cc1c(C(=O)N2C[C@H]3CCC[C@@H](C2)[C@@H]3CC(F)(F)F)cnn1-c1nn2cccc2c(=O)[nH]1 [Q-1199]	0.001	0.029
Cc1c(C(=O)N2CCN(CC(F)(F)F)C3(CCC3)C2)cnn1-c1nn2cccc2c(=O)[nH]1 [Q-1200]	0.001	0.15
Cc1c(C(=O)N2CCN(C3CC3)CC2)nnn1-c1nn2cccc2c(=O)[nH]1 [Q-1201]	0.001	0.069
Cc1c(C(=O)N2CCN(c3ncc(-c4ccc(F)cc4)o3)CC2)cnn1-c1nn2cccc2c(=O)[nH]1 [Q-1202]	0.005	0.26
Cc1c(C(=O)N2CCN(c3ncc(-c4ccccc4C#N)o3)CC2)cnn1-c1nn2cccc2c(=O)[nH]1 [Q-1203]	0.006	0.18
Cc1c(C(=O)N2CCCN(C3CC3)CC2)cnn1-c1nn2cccc2c(=O)[nH]1 [Q-1205]	0.003	0.035
Cc1c(C(=O)N2CCc3nc(-c4cccnc4)sc3C2)cnn1-c1nn2cccc2c(=O)[nH]1 [Q-1206]	0.001	0.07
CCCC(=O)C1CCN(C(=O)c2cnn(-c3nn4cccc4c(=O)[nH]3)c2C)CC1 [Q-1207]	0.001	0.029
Cc1c(C(=O)N2CCC(C(=O)C3CC3)CC2)cnn1-c1nn2cccc2c(=O)[nH]1 [Q-1208]	0.001	0.061
Cc1c(C(=O)N2CCC3(CCC3=O)CC2)cnn1-c1nn2cccc2c(=O)[nH]1 [Q-1209]	0.001	0.92
Cc1c(C(=O)N2CCN(c3nc(-c4ccc(C#N)cc4)cs3)CC2)cnn1-c1nn2cccc2c(=O)[nH]1 [Q-1210]	0.002	0.084

— patent US9963462B2 (priority 2015, dated 2018)
